What was measured:
[1] = test system: neointimal formation in rats; conditions: cited from earlier work
[2] = test system: Dahl salt-sensitive rats; conditions: rat, in vivo; cited from earlier work
[3] = test system: spontaneously hypertensive rat, renal hypertensive rat and deoxycortisone acetate salt hypertensive rat models; conditions: cited from earlier work
[4] = test system: IL-1 beta-induced coronary stenosis; conditions: long term treatment; cited from earlier work
[5] = molecular target: ROCK2 (Homo sapiens (Human), UniProt O75116); assay: ROCK assay (Caliper LABCHIP peptide phosphorylation); type: biochemical; conditions: 5 μM ATP, 1.5 μM peptide substrate
Sequence of ROCK2 (O75116 whole entry, species assumed): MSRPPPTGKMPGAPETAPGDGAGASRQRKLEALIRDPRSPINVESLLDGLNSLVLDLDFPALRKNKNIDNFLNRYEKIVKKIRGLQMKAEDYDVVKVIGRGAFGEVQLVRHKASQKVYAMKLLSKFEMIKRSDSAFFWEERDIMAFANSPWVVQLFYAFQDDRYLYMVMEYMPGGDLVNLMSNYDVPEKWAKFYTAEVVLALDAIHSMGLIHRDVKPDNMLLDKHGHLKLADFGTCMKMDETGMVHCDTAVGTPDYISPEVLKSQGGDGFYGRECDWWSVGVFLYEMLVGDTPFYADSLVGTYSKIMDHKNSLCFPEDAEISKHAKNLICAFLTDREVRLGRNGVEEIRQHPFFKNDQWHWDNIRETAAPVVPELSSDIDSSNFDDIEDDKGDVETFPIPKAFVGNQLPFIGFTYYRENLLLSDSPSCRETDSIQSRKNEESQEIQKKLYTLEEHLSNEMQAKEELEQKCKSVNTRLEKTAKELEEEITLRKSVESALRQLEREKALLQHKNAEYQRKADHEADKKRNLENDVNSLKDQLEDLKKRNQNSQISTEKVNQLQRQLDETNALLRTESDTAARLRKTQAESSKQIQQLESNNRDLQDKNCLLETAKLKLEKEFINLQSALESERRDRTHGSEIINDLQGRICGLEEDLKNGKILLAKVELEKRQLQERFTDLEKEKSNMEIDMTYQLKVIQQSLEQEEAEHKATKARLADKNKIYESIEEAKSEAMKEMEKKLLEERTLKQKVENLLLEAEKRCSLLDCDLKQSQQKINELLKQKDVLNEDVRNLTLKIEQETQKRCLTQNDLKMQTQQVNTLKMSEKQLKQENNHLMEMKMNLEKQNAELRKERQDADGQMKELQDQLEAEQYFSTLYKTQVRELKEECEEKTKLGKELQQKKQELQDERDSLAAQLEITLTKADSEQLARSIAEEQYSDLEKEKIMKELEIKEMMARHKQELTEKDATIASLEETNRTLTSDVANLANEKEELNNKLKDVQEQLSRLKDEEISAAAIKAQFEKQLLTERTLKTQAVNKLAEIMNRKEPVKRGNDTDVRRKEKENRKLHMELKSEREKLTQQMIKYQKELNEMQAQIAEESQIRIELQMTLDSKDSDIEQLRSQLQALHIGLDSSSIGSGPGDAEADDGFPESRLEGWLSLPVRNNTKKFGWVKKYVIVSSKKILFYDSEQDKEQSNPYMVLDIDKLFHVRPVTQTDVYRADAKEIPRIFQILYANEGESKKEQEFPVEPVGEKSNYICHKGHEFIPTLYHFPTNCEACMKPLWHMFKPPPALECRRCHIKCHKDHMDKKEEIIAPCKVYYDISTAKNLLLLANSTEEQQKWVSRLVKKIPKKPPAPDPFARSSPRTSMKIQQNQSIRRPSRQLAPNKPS
Method in brief: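 Human ROCK2 reaction with 5 μM ATP and 1.5 μM FITC-labelled peptide substrate in 20 mM HEPES pH 7.5, 20 mM MgCl2, 4 mM DTT, DMSO <2%; stopped with EDTA. Phosphorylated and unphosphorylated peptide separated by microfluidic mobility shift; IC50 from dose-response curve fit.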

IC50 [5]	Compound	also measured
	C[C@@H](N)[C@H]1CC[C@H](C(=O)Nc2ccncc2)CC1 [Example Y-27632, Y-27632]	neointimal formation [1]: inhibited neointimal formation; ventricular hypertrophy, fibrosis and function [2]: improve ventricular hypertrophy, fibrosis and function; blood pressure in control rats ([3]; control rats): only a minor effect on blood pressure; blood pressure ([3]; three rat models of hypertension): significantly decrease blood pressure
	O=S(=O)(c1cccc2cnccc12)N1CCCNCC1 [fasudil]	coronary constrictive remodeling [4]: promote a regression of coronary constrictive remodeling; coronary stenosis [4]: progressively reduce coronary stenosis
62 nM	NC(=O)c1cccnc1O[C@H]1C[C@]2(C1)C[C@H](N1C(=O)NC(CCC(F)(F)F)C1=O)C2 (stereo partly shown) [Example 29, 2-{[(αR)-6-[2,5-dioxo-4-(3,3,3-trifluoropropyl)-imidazolidin-1-yl]spiro[3.3]-heptan-2-yl]oxy}-pyridine-3-carbox-amide]	
5 nM	[H][C@]1(Oc2nc(OC)ccc2C(N)=O)C[C@]2(C[C@@H](N3C(=O)N[C@@H](CC(C)C(F)(F)F)C3=O)C2)C1 (stereo partly shown) [Example 102]	
885 nM	Cc1c(CC2NC(=O)N([C@H]3C[C@@]4(C[C@H](Oc5ncccc5C(N)=O)C4)C3)C2=O)cnn1C (stereo partly shown) [Example 72, 2-{[(αR)-6-{4-[(1,5-dimethyl-1H-pyrazol-4-yl)-methyl]-2,5-dioxo-imidazolidin-1-yl}-spiro[3.3]heptan-2-yl]oxy}pyridine-3-carboxamide]	
13 nM	CS(=O)(=O)c1cccc(N2CC(=O)N([C@H]3C[C@@]4(C[C@H](Oc5ncccc5C(N)=O)C4)C3)C2=O)c1 (stereo partly shown) [Example 89, 2-(((αR)-6-(3-(3-(methylsulfonyl)phenyl)-2,5-dioxoimidazolidin-1-yl)spiro[3.3]heptan-2-yl)oxy)nicotinamide]	
8 nM	NC(=O)c1cccnc1O[C@H]1C[C@]2(C1)C[C@H](N1C(=O)NC(CC3CCCCC3)C1=O)C2 (single isomer, unassigned) [Example 2, 2-{[(αR)-6-[4-(cyclohexyl-methyl)-2,5-dioxoimidazol-idin-1-yl]spiro-[3.3]heptan-2-yl]-oxy}pyridine-3-carboxamide]	
303 nM	NC(=O)c1cccnc1O[C@H]1C[C@]2(C1)C[C@H](N1C(=O)NC(CCOC(F)(F)F)C1=O)C2 (single isomer, unassigned) [Example 59, 2-{[(αR)-6-{2,5-dioxo-4-[2-(trifluoromethoxy)-ethyl]imidazolidin-1-yl}spiro[3.3]-heptan-2-yl]oxy}-pyridine-3-carbox-amide]	
38 nM	NC(=O)c1cccnc1O[C@H]1C[C@]2(C1)C[C@H](N1C(=O)N[C@@H](CC3CC3)C1=O)C2 (stereo partly drawn) [Example 26, 2-{[(αR)-6-[(4S)-4-(cyclopropyl-methyl)-2,5-dioxo-imidazolidin-1-yl]-spiro[3.3]heptan-2-yl]oxy}pyridine-3-carboxamide]	
